One test has as its system HOP-18 NSCLC. Briefly: NCI anticancer screen, dose series, 48 h.
The next test deals with NCI/ADR-RES ovarian. The experiment in a line: NCI anticancer screen, dose series, 48 h.

Molecules are shown by their SMILES.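 The compound was tested at five concentrations on cells cultured in 96-well plates, with a 48-hour exposure period. GI50 marks 50% less growth. Definition used: TGI = concentration required for complete inhibition of growth.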

`CCOC(=O)c1ncoc1[C@H]1COC(C)(C)O1` registered a TGI in the test on HOP-18 NSCLC of more than 100 µM.
As to `O=C(c1ccccc1)c1nn(-c2ccc(Cl)cc2)c2nc3nc(-c4ccccc4)cc(=O)n3nc12`, in the test on NCI/ADR-RES ovarian, the GI50 is 35.5 µM and the TGI was more than 100 µM.

Source of the values: PubChem BioAssay (NCI).
